Test results taken from ChEMBL document CHEMBL3352633, “β-Lactam estrogen receptor antagonists and a dual-targeting estrogen receptor/tubulin ligand” (J Med Chem, 2014).
Activity calls are given as the source filed them. No cut-off for these calls is given here.

Columns and labels:
[1] = biological target: T1, Estrogen receptor (Homo sapiens, UniProt P03372)
T1 sequence (P03372 whole entry): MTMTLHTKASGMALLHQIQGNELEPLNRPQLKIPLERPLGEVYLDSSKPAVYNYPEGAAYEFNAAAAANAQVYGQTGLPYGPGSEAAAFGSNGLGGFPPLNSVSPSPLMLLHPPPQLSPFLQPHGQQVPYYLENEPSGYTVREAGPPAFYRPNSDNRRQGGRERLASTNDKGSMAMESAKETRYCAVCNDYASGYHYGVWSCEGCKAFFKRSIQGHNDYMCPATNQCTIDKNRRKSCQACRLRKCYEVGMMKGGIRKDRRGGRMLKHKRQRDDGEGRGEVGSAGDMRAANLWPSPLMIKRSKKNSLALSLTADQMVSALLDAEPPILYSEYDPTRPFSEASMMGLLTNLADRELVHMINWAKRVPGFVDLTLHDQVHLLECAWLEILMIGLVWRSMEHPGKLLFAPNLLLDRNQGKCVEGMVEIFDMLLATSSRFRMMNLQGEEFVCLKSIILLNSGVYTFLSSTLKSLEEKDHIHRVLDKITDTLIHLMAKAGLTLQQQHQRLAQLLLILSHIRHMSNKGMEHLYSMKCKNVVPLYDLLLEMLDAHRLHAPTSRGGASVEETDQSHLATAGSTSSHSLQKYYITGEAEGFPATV
Description: (§1) Displacement of fluorescein-labeled estrogen from human recombinant ERalpha by fluorescence polarization based competitive binding affinity assay

[2] = biological target: T2, Estrogen receptor beta (Homo sapiens, UniProt Q92731)
Description: (§2) Displacement of fluorescein-labeled estrogen from human recombinant ERbeta by fluorescence polarization based competitive binding affinity assay

[3] = system: MCF7; assay: cells; conditions: Homo sapiens, MCF7, 72 h
[4] = biological target: Tubulin (Homo sapiens) (UniProt P68371+Q9H4B7+P0DPH7+P68366+Q13509+Q71U36+P04350+Q3ZCM7+P07437+P68363+Q9BQE3+Q6PEY2+Q13885+Q9BVA1+Q9BUF5); assay: Induction of tubulin depolymerization in human MCF7 cells at 1 uM after 4 hrs by sedimentation assay and Western blotting method; assay type: cell-based
[5] = biological target: T3, Estrogen receptor (Homo sapiens) (UniProt P03372); assay: Displacement of fluorescein-labeled estrogen from human recombinant ERalpha at 1 uM by fluorescence polarization based competitive binding affinity assay
T3 sequence (whole entry): T1 sequence (P03372 whole entry)

[6] = biological target: T2, Estrogen receptor beta; assay: Displacement of fluorescein-labeled estrogen from human recombinant ERbeta at 1 uM by fluorescence polarization based competitive binding affinity assay
[7] = biological target: T1, Estrogen receptor; assay: Antagonist activity at human recombinant ERalpha by FRET assay
[8] = biological target: T3, Estrogen receptor (Homo sapiens); assay: Agonist activity at human recombinant ERalpha by FRET assay
[9] = system: MCF7; assay: Induction of cell cycle arrest in human MCF7 cells assessed as accumulation at G2/M phase at 1 to 10 uM after 24 hrs by propidium iodide staining based flow cytometry; assay type: functional
[10] = system: MCF7; assay: Induction of cell cycle arrest in human MCF7 cells assessed as accumulation at subG1 phase at 1 to 10 uM after 24 hrs by propidium iodide staining based flow cytometry; assay type: functional
[11] = system: MCF7; assay: Induction of cell cycle arrest in human MCF7 cells assessed as accumulation at subG1 phase at 1 to 10 uM after 48 hrs by propidium iodide staining based flow cytometry (reference value: 1.9%); assay type: functional
[12] = system: MCF7; assay: Induction of cell cycle arrest in human MCF7 cells assessed as accumulation at subG1 phase at 1 to 10 uM after 72 hrs by propidium iodide staining based flow cytometry (reference value: 3.7%); assay type: functional
[13] = system: MCF7; assay: Reduction in Bcl-2 expression in human MCF7 cells at 10 uM after 72 hrs by SDS-PAGE and Western blot method; assay type: functional, cell-based
[14] = system: MCF7; assay: Reduction in Mcl-1 expression in human MCF7 cells at 10 uM after 72 hrs by SDS-PAGE and Western blot method; assay type: functional, cell-based
[15] = system: MCF7; assay: Reduction in Bcl-2 expression in human MCF7 cells at 10 uM after 48 hrs by SDS-PAGE and Western blot method; assay type: functional, cell-based
[16] = system: MCF7; assay: Induction of cell cycle arrest in human MCF7 cells assessed as increase in accumulation at sub-G1 phase at >10 nM after 24 hrs by propidium iodide staining based flow cytometry; assay type: functional
[17] = system: MCF7; assay: Induction of cell cycle arrest in human MCF7 cells assessed as accumulation at G2/M phase at 10 uM after 24 hrs by propidium iodide staining based flow cytometry; assay type: functional
[18] = biological target: T1, Estrogen receptor; remark: listed apart in the source
Description: as §1

[19] = biological target: T2, Estrogen receptor beta; remark: listed apart in the source
Description: as §2

[20] = system: MCF7; assay: Induction of cell cycle arrest in human MCF7 cells assessed as accumulation at G2/M phase at >100 nM after 24 hrs by propidium iodide staining based flow cytometry; assay type: functional
[21] = system: MCF7; assay: Induction of cell cycle arrest in human MCF7 cells assessed as increase in accumulation at sub-G1 phase at 1 to 10 uM after 24 hrs by propidium iodide staining based flow cytometry; assay type: functional

T2 sequence (Q92731 whole entry): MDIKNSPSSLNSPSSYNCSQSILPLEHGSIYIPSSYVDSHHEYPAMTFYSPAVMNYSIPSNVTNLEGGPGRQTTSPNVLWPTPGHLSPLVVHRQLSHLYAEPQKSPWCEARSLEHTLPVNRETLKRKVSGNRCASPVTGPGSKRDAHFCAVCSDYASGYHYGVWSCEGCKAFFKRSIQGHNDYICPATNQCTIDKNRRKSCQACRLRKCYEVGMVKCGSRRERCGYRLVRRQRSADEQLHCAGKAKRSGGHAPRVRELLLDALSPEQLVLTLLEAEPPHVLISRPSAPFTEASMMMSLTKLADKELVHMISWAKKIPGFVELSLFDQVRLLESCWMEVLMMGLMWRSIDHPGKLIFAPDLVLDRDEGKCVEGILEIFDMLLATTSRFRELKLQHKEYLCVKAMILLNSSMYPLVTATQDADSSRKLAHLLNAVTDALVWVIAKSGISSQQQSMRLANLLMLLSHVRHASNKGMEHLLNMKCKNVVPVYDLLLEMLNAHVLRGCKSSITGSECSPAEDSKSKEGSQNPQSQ

Row | Compound | IC50 [1] | IC50 [2] | IC50 [3] | other results
1 | O=C1N(c2ccc(O)cc2)[C@@H](c2ccc(O)cc2)C1(c1ccccc1)c1ccccc1 | 40 nM | 19 nM | > 50 µM | 
2 | O=C1[C@@H](Oc2ccccc2)[C@H](c2ccc(O)cc2)N1c1ccc(O)cc1 (relative stereo) | 140 nM | 1200 nM | > 50 µM | 
3 | O=C1[C@@H](c2ccc3ccccc3c2)[C@H](c2ccc(O)cc2)N1c1ccc(O)cc1 (relative stereo) | 150 nM | 1100 nM | > 50 µM | 
4 | COc1cc([C@H]2[C@H](c3ccc(O)cc3)C(=O)N2c2ccc(O)cc2)cc(OC)c1OC (relative stereo) | 18000 nM | 144000 nM | > 50 µM | 
5 | COC(=O)Nc1nc2cc(C(=O)c3cccs3)ccc2[nH]1 |  |  |  | Activity [4]: Active
6 | O=C1C[C@H](c2ccc(O)cc2)N1c1ccc(O)cc1 | 13000 nM | 56000 nM | > 50 µM | 
7 | COc1cc([C@@H]2C(=O)N(c3ccc(O)cc3)[C@H]2c2ccc(O)cc2)cc(OC)c1OC (relative stereo) | 1470 nM | 23000 nM | > 50 µM | 
8 | O=C1[C@@H](C(O)c2ccc(O)cc2)[C@H](c2ccc(O)cc2)N1c1ccc(O)cc1 (stereo partly specified) |  |  | 49 µM | inhibition [5]: 40%; inhibition [6]: 43%
9 | O=C1[C@@H](c2ccccc2)[C@H](c2ccc(O)cc2)N1c1ccc(O)cc1 (relative stereo) | 230 nM | 980 nM | > 50 µM | 
10 | COc1ccc([C@H]2[C@H](C(O)c3ccc(O)cc3)C(=O)N2c2ccc(OC)cc2)cc1 (stereo partly specified) |  |  | 32 µM | inhibition [5]: 37%; inhibition [6]: 75%
11 | O=C1[C@@H](c2ccc(O)cc2)[C@H](c2ccc(O)cc2)N1c1ccc(O)cc1 (relative stereo) | 1100 nM | 4800 nM | > 50 µM | IC50 [7]: 1400 nM; Activity [8]: inactive
12 | COc1ccc([C@H]2[C@H](C(O)c3ccc(O)cc3)C(=O)N2c2cc(OC)c(OC)c(OC)c2)cc1 (stereo partly specified) | 8 nM | 15 nM | 0.21 µM | Activity [9]: Active; Activity [10]: inactive; Activity [11]: 9.3%; Activity [12]: 17%; Activity [4]: Active; Activity [13]: Active; Activity [14]: Active; Activity [15]: Active; inhibition [5]: 93%; inhibition [6]: 94%
13 | COc1ccc([C@@H]2[C@@H](c3ccc(C(O)c4ccc(OCCN5CCCC5)cc4)cc3)C(=O)N2c2ccc(OC)cc2)cc1 (stereo partly specified) |  |  | 4.63 µM | 
14 | COc1ccc([C@H]2[C@H](C(O)c3ccc(OCCN4CCCC4)cc3)C(=O)N2c2cc(OC)c(OC)c(OC)c2)cc1 (stereo partly specified) |  |  | 3.8 µM | Activity [16]: Active; Activity [17]: Active; IC50 [18]: Not Active; IC50 [19]: Not Active
15 | COc1ccc([C@H]2CC(=O)N2c2cc(OC)c(OC)c(OC)c2)cc1 |  |  |  | Activity [20]: Active; Activity [21]: Active; IC50 [18]: Not Active; IC50 [19]: Not Active
